Assay results published in PMC8306964 (2021).
Peptide text beside a SMILES is read from it. * marks the point of attachment. OBn = c1ccc(CO*)cc1

How the values were obtained:
[1] = tested on: p(dGdC) (DNA, polymer) GC; assay: fluorescence titration, Scatchard (McGhee-von Hippel) fit; conditions: Na+ (sodium cacodylate, 50 mM); pH 7.0, 25 °C, <1% DMSO; n fixed 0.3; polynucleotide as phosphates; error half log unit; per base
[2] = tested on: dA10-dT10 (DNA, duplex) AAAAAAAAAA/TTTTTTTTTT; assay: HPLC retention shift; conditions: NH4+ (ammonium acetate, 100 mM); pH 7.0; signal about 0.5 min earlier with compound
[3] = tested on: dA10-dT10 (DNA, duplex) AAAAAAAAAA/TTTTTTTTTT; assay: photoalkylation (300 nm irradiation), HPLC; conditions: NH4+ (ammonium acetate, 100 mM); covalent; pH 7.0; 15 or 60 min; new broad signal at about 16.5 min
[4] = tested on: dG12-dC12 (DNA, duplex) GGGGGGGGGGGG/CCCCCCCCCCCC; assay: HPLC retention shift; conditions: NH4+ (ammonium acetate, 100 mM); pH 7.0; retention retarded by about 0.3 min with compound; no alkylation on irradiation
[5] = tested on: p(dAdT) (DNA, polymer) AT; assay: fluorescence titration, Scatchard (McGhee-von Hippel) fit; conditions: Na+ (sodium cacodylate, 50 mM); pH 7.0, 25 °C, <1% DMSO; n fixed 0.3; polynucleotide as phosphates; error half log unit; per base
pApU (RNA, polymer) A/U = assay: as above; conditions: Na+ (sodium cacodylate, 50 mM); pH 7.0, 25 °C, <1% DMSO; n fixed 0.3; polynucleotide as phosphates; error half log unit; per base

SMILES: N[C@@H](Cc1c[nH]c2ccccc12)C(=O)N[C@@H](Cc1c[nH]c2ccccc12)C(=O)N[C@@H](Cc1ccc(O)cc1)C(=O)OCc1ccccc1 (H-Trp-Trp-Tyr-OBn)
- log Ka [1]: 6.5 log (M^-1)

SMILES: CN(C)Cc1cc(C[C@H](NC(=O)[C@H](Cc2c[nH]c3ccccc23)NC(=O)[C@@H](N)Cc2c[nH]c3ccccc23)C(=O)OCc2ccccc2)ccc1O
- log Ka [1]: 6.4 log (M^-1)
- binding [2]: yes
- binding [3]: yes
- binding [4]: yes
- log Ka [5]: 5.9 log (M^-1)
- log Ka (pApU (RNA, polymer) A/U): 6.0 log (M^-1)
